Where two headings read alike, the source gives them in different places. Values belong to the compound of their own block, whether it stands above or below them.
Experiments:
[1] = tested on: Non-Iron-Overloaded Rodents; settings: rats, po, 300 μmol/kg, historical data; cited from earlier work
[2] = earlier preclinical studies; cited from earlier work
[3] = tested on: Iron-Overloaded Cebus apella Primates; settings: Cebus apella, po, 150 μmol/kg, historical data; cited from earlier work
[4] = tested on: Iron-Overloaded Cebus apella Primates; experiment: Chelator-induced iron clearance in iron-overloaded Cebus apella primates; assay type: in vivo; settings: po, 75 μmol/kg
From the text: Chelator-Induced Iron Clearance in Iron-Overloaded Cebus apella Primates. The iron-clearance data for all three sets of ligands are presented (Table 2). […] J. Med. Chem. 2003, 46, 1470-1477]>1 (16.8±7.2%) [Bergeron, R. J., Wiegand, J., McManis, J. S., McCosar, B. H., Weimar, W. R., Brittenham, G. M. and Smith, R. E. Effects of C-4 Stereochemistry and C-4′ Hydroxylation on the Iron Clearing Efficiency and Toxicity of Desferrithiocin Analogues. J. Med. Chem. 1999, 42, 2432-2440], the increase is not significant. Although (S)-4′-(HO)-DADFT-PE (3) is the least lipophilic chelator in the 1-3 series, it is just as efficient (ICE, 25.4±7.4%) [Bergeron, R. J., Wiegand, J., McManis, J. S., Vinson, J. R. T., Yao, H., Bharti, N. and Rocca, J. R. (S)-4,5-Dihydro-2-(2-hydroxy-4-hydroxyphenyl)-4-methyl-4-thiazolecarboxylic Acid Polyethers: A Solution to Nephrotoxicity.
The monkeys (3.5-4 kg) were iron overloaded with intravenous iron dextran as specified in earlier publications to provide about 500 mg of iron per kg of body weight [Bergeron, R. J., Streiff, R. R., Wiegand, J., Luchetta, G., Creary, E. A. and Peter, H. H. A Comparison of the Iron-Clearing Properties of 1,2-Dimethyl-3-hydroxypyrid-4-one, 1,2-Diethyl-3-hydroxypyrid-4-one, and Deferoxamine. Blood 1992, 79, 1882-1890]; the serum transferrin iron saturation rose to between 70 and 80%. At least 20 half-lives, 60 d [Wood, J. K., Milner, P. F. and Pathak, U. N. The Metabolism of Iron-dextran Given as a Total-dose Infusion to Iron Deficient Jamaican Subjects. Br. J. Haematol. 1968, 14, 119-129], elapsed before any of the animals were used in experiments evaluating iron-chelating agents.
Fecal and urine samples were collected at 24-h intervals and processed as described previously [Bergeron, R. J., Streiff, R. R., Creary, E. A., Daniels, R. D., Jr., King, W., Luchetta, G., Wiegand, J., Moerker, T. and Peter, H. H. A Comparative Study of the Iron-Clearing Properties of Desferrithiocin Analogues with Desferrioxamine B in a Cebus Monkey Model. Blood 1993, 81, 2166-2173; Bergeron, R. J., Streiff, R. R., Wiegand, J., Vinson, J. R. T., Luchetta, G., Evans, K. M., Peter, H. and Jenny, H.-B. A Comparative Evaluation of Iron Clearance Models. Ann. N.Y. Acad. Sci. 1990, 612, 378-393; Bergeron, R. J., Wiegand, J. and Brittenham, G. M. HBED: A Potential Alternative to Deferoxamine for Iron-Chelating Therapy. Blood 1998, 91, 1446-1452]. Briefly, the collections began 4 d prior to the administration of the test drug and continued for an additional 5 d after the drug was given. Iron concentrations were determined by flame atomic absorption spectroscopy as presented in other publications [Bergeron, R. J., Streiff, R. R., Wiegand, J., Vinson, J. R. T., Luchetta, G., Evans, K. M., Peter, H. and Jenny, H.-B. A Comparative Evaluation of Iron Clearance Models. Ann. N.Y. Acad. Sci. 1990, 612, 378-393; Bergeron, R. J., Wiegand, J., Wollenweber, M., McManis, J. S., Algee, S. E. and Ratliff-Thompson, K. Synthesis and Biological Evaluation of Naphthyldesferrithiocin Iron Chelators. J. Med. Chem. 1996, 39, 1575-1581].
(§1) In the iron-clearing experiments, the rats were given a single 300 μmol/kg dose of drugs 1-9 orally (po).
(§2) J. Med. Chem. 1999, 42, 2432-2440].

[5] = Chelator tissue distribution in rodents; assay type: in vivo, rat (male Sprague-Dawley); settings: rats, sc, 300 μmol/kg; for concentration at 0.5 h: male, Sprague-Dawley, rat, plasma
Procedure: Collection of Tissue Distribution Samples from Rodents: Male Sprague-Dawley rats (250-350 g) were given a single sc injection of the monosodium salts of 6 and 9 prepared as described above at a dose of 300 μmol/kg. At times 0.5, 1, 2, and 4 h after dosing (n=3 rats per time point) the animals were euthanized by exposure to CO2 gas. Blood was obtained via cardiac puncture into vacutainers containing sodium citrate. The blood was centrifuged, and the plasma was separated for analysis. The liver, heart, kidneys, and pancreas were then removed from the animals. […] J. Med. Chem. 2006, 49, 2772-2783]. In the current study, tissues from the (S)-3′-(HO)-DADFT-PE (9) and (S)-5′-(HO)-DADFT-PE (6) treated rats were prepared for HPLC analysis by homogenizing them in 0.5 N HClO4 at a ratio of 1:3 (w/v). Then, as a rinse, CH3OH at a ratio of 1:3 (w/v) was added and the mixture was stored at −20° C. for 30 min. This homogenate was centrifuged. The supernatant was diluted with mobile phase A (95% buffer [25 mM KH2PO4, pH 3.0]/5% CH3CN), vortexed, and filtered with a 0.2 μm membrane. Analytical separation was performed on a Discovery RP Amide C16 HPLC system with UV detection at 310 nm as described previously [Bergeron, R. J., Wiegand, J., Weimar, W. R., McManis, J. S., Smith, R. E. and Abboud, K. A. Iron Chelation Promoted by Desazadesferrithiocin Analogues: An Enantioselective Barrier. Chirality 2003, 15, 593-599; Bergeron, R. J., Wiegand, J., Ratliff-Thompson, K. and Weimar, W. R. The Origin of the Differences in (R)- and (S)-Desmethyldesferrithiocin: Iron-Clearing Properties. Ann. N.Y. Acad. Sci. 1998, 850, 202-216]. Mobile phase and chromatographic conditions were as follows: solvent A, 5% CH3CN/95% buffer; solvent B, 60% CH3CN/40% buffer. The concentrations were calculated from the peak area fitted to calibration curves by nonweighted least-squares linear regression with Rainin Dynamax HPLC Method Manager software (Rainin Instrument Co.).

[6] = tested on: Non-Iron-Overloaded Rodents; experiment: Chelator-induced iron clearance in non-iron-overloaded, bile duct-cannulated rats; assay type: in vivo, rat (male Sprague-Dawley); settings: po, 300 μmol/kg; for ICE of the polyether relative to that of the parent ligand: 1 vs 3, 4 vs 6, 7 vs 9
From the text: Chelator-Induced Iron Clearance in Non-Iron-Overloaded Rodents. […] J. Med. Chem. 2006, 49, 2772-2783]. Recall that iron-clearing efficiency (ICE) is defined as (net iron excretion)/(total iron-binding capacity of the chelator), expressed as a percent. The relative ICE values of compounds 1 and 2 were in keeping with their log Papp values: the more lipophilic, the larger log Papp, the more efficient the chelator. […] However, the ICE trend was in keeping with the biliary ferrokinetics (FIG. 3) and liver concentration of the chelators, for example, 3>1 (FIG. 4).
Cannulation of Bile Duct in Non-Iron-Overloaded Rats has been described previously. […]. […] The urine sample(s) was taken at 24 h intervals. Sample collection and handling are as previously described [Bergeron, R. J., Streiff, R. R., Creary, E. A., Daniels, R. D., Jr., King, W., Luchetta, G., Wiegand, J., Moerker, T. and Peter, H. H. A Comparative Study of the Iron-Clearing Properties of Desferrithiocin Analogues with Desferrioxamine B in a Cebus Monkey Model. Blood 1993, 81, 2166-2173; Bergeron, R. J., Streiff, R. R., Wiegand, J., Vinson, J. R. T., Luchetta, G., Evans, K. M., Peter, H. and Jenny, H.-B. A Comparative Evaluation of Iron Clearance Models. Ann. N.Y. Acad. Sci. 1990, 612, 378-393].
as §1, §2

[7] = Iron clearance performance ratio in primates versus rodents; assay type: in vivo, Cebus apella / rat; settings: mean ICE primates / mean ICE rodents
From the text: Iron Clearance Performance Ratio in Primates versus Rodents. The performance ratio (PR), defined as the mean ICEprimates/ICErodents, is noteworthy (Table 3). […] The mean ICE for the primate group can be compared with the mean ICE of the rodent group (Table 3). […] This is not the case with the 5′-polyether (6), whose ICE is virtually identical in the two species. The largest differences in performance ratios generally unfold with the parent ligands 1, 4, and 7.

SMILES: COc1ccc(C2=N[C@@](C)(C(=O)O)CS2)c(O)c1 [Compound 2, (S)-4,5-dihydro-2-(2-hydroxy-4-methoxyphenyl)-4-methyl-4-thiazolecarboxylic acid]
Iron-Clearing Efficiency (%) [1]: 6.6±2.8% | toxicity / nephrotoxicity in words [2]: unacceptably toxic | Iron-Clearing Efficiency (%) [3]: 24.4±10.8%

concentration at 0.5 h ([5]; 0.5 h): 324 ± 20 µM | decrease of liver concentration from 0.5 h to 1 h [5]: 36% | kidney concentration ([5]; 0.5 h): 643±92 nmol/g wet weight | liver concentration ([5]; 0.5 h): 483±85 nmol/g wet weight | drop in plasma concentration relative to 0.5 h ([5]; 1 h): 39% | kidney concentration ([5]; 1 h): 435±111 nmol/g wet weight | drop in plasma concentration relative to 0.5 h ([5]; 2 h): 54% | kidney concentration ([5]; 2 h): 321±20 nmol/g wet weight | pancreas concentration ([5]; 2 h): ≈ 30 nmol/g wet weight | drop in plasma concentration relative to 0.5 h ([5]; 4 h): 82% | kidney concentration ([5]; 4 h): 116±65 nmol/g wet weight
SMILES: COCCOCCOCCOc1ccc(O)c(C2=N[C@@](C)(C(=O)O)CS2)c1 [Compound 6, (S)-4,5-dihydro-2-[2-hydroxy-5-(3,6,9-trioxadecyloxy)phenyl]-4-methyl-4-thiazolecarboxylic acid]
Iron-Clearing Efficiency (%) [4]: 8.1±2.8% | relative percentages of the iron excreted in the stool and urine [4]: 56/44 | Iron-Clearing Efficiency (%) [6]: 8.0±1.8% | ICE of the polyether relative to that of the parent ligand [6]: 800% | relative percentages of the iron excreted in the bile and urine [6]: 98/2

concentration at 0.5 h ([5]; 0.5 h): 62 ± 24 µM | kidney concentration ([5]; 0.5 h): 280±26 nmol/g wet weight | liver concentration ([5]; 0.5 h): 242±38 nmol/g wet weight | drop in plasma concentration relative to 0.5 h ([5]; 1 h): 26% | kidney concentration ([5]; 1 h): 259±35 nmol/g wet weight | liver concentration ([5]; 1 h): 318±46 nmol/g wet weight | drop in plasma concentration relative to 0.5 h ([5]; 2 h): 61% | kidney concentration ([5]; 2 h): 145±27 nmol/g wet weight | pancreas concentration ([5]; 2 h): 16 nmol/g wet weight | drop in plasma concentration relative to 0.5 h ([5]; 4 h): 79% | kidney concentration ([5]; 4 h): 90±7 nmol/g wet weight
SMILES: COCCOCCOCCOc1cccc(C2=N[C@@](C)(C(=O)O)CS2)c1O [Compound 9, (S)-4,5-dihydro-2-[2-hydroxy-3-(3,6,9-trioxadecyloxy)phenyl]-4-methyl-4-thiazolecarboxylic acid]
Iron-Clearing Efficiency (%) [4]: 24.5±7.6% | relative percentages of the iron excreted in the stool and urine [4]: 72/28 | ICE of 3′-polyether relative to 4′-polyether (3), more effective [6]: ~200% | ICE of the polyether relative to that of the parent ligand [6]: 230% | Iron-Clearing Efficiency (%) ([6]; 48 h sample collection period): 10.6±4.4% | relative percentages of the iron excreted in the bile and urine ([6]; 48 h sample collection period): 95/5

SMILES: C[C@]1(C(=O)O)CSC(c2cc(O)ccc2O)=N1 [drawing 24]
ICE Primate/ICE Rodent (performance ratio) [7]: 12.6

SMILES: COc1ccc(O)c(C2=N[C@@](C)(C(=O)O)CS2)c1 [drawing 25]
ICE Primate/ICE Rodent (performance ratio) [7]: 3.0

SMILES: COCCOCCOCCOc1ccc(O)c(C2=N[C@@](C)(C(=O)O)CS2)c1 [drawing 26]
ICE Primate/ICE Rodent (performance ratio) [7]: 1.0

SMILES: C[C@]1(C(=O)O)CSC(c2cccc(O)c2O)=N1 [drawing 27]
ICE Primate/ICE Rodent (performance ratio) [7]: 5.0

SMILES: COc1cccc(C2=N[C@@](C)(C(=O)O)CS2)c1O [drawing 28]
ICE Primate/ICE Rodent (performance ratio) [7]: 1.8

SMILES: COCCOCCOCCOc1cccc(C2=N[C@@](C)(C(=O)O)CS2)c1O [drawing 29]
ICE Primate/ICE Rodent (performance ratio) [7]: 2.3
